Data from patent publication US6342517B1, “Potassium channel activators and their use” (Cambridge Bioclinical Limited, priority 1998, dated 2002).
Blank lines part the entries; values can stand above or below the molecule they belong to.

Tests used:
[1] = test system: NIH 3T3 fibroblasts; assay: Cell growth potentiation test (potentiation of mitogenic activity of fetal calf serum, EZ4U cellular proliferation assay); format: cell-based; conditions: for Cell growth potentiation relative to minoxidil at 100 μM (%): 0% = base concentration of FCS alone (5% or 3%), 100% = minoxidil at 100 μM; for Cell growth relative to FCS alone (%): 100% = same growth as base concentration of FCS alone
Source text: To test for activity in mammalian hair growth stimulation, an in vitro test of cell growth potentiation has been applied to a number of the compounds of the invention and prior art compounds 11901 and 11903. The test involves an assay of the call growth due to potentiation of the mitogenic activity of fetal calf serum (FCS). See WO97/14036. Details of materials, methods and results are as follows.
Tissue culture plastics were obtained from Beckton Dickinson (Cowley, Oxford, UK). NIH 3T3 fibroblasts were obtained from the European collection of animal cell cultures (Salisbury, Wilts, UK). Dulbecco's modified Eagle's medium (DMEM) was obtained from Flow Laboratories (Rickmansworth, Herts, UK). L-Glutamine and fetal calf serum were from Gibco (Paisley, UK).
The EZ4U cell proliferation assay kits were obtained from Cozart Bioscience Ltd (Abingdon, Oxon, UK). All other chemicals were obtained from Sigma Chemical Company Ltd. (Poole, Dorset, UK), and of the highest grade available.
NIH 3T3 fibroblasts were maintained in Dulbecco's modified Eagle's medium supplemented with 10% FCS and 2 mM L-glutamine in 150 cm^2 tissue culture flasks at 37° C. in an atmosphere of 5% CO2/95% air. Antibiotics were omitted. Medium was changed every 3 days, and passages were carried out twice a week before cells reached confluence. Prior to experiments, cells were passaged and plated out to give 10^4 cell/ml in 96-well multi-well plates. Cells were incubated for 24 hours with Dulbecco's modified Eagle's medium supplemented with 10% FCS to aid attachment. This was then removed and the experimental medium added.
Compounds were prepared following a general preparation protocol. This protocol consisted of taking a mass of compound, dissolving in the recommended solvent (40 μl) such that in the final preparation the concentrations of compound and solvent would be 100 μM and 0.1 respectively. In theory this volume was 40 μl, however for accuracy a mass larger than the required mass was dispensed and the solvent volume varied accordingly; only 40 μl of this solution was required for the next stage. The 40 μl volume was then added to a volume of FCS (1.2 ml), such that in the final preparation the concentration of FCS would be 3%. This solution was then added to DMEM containing L-glutamine (2 mM) (18.76 ml). The resulting solution of 20 ml volume was filter stabilised. This solution is now 200 μM in compound, 6% FCS and 0.2% solvent, and so was diluted 1:1 with the DMEM containing L-glutamine. This 100 μM stock could then be diluted serially to provide lower concentrations of the compound of interest. Solutions containing different ratios of compound and FCS were obtained in a similar manner.
This was performed, following the manufacturer's instructions, using an EZ4U assay kit, which is based upon the conversion of tetrazolium salt to coloured formazam derivatives by mitochondria (Hansen et al, 1989). Plates were read on a plate reader (Anthos Labtec HT2), using a measurement filter (450 nm), with a reference filter (620 nm) with a low Shaking density for 5 seconds prior to measurement. Control experiments were made against counting cells in a haemocytometer (sanders et al, 1996). There is some variance of results between different batches of FCS employed.
A series of cell growth potentiation/inhibition tests has been carried out in accordance with the procedure described above on some of the compounds of the invention, on compounds 11901 and 11903 and on minoxidil (a compound well known for its hair growth stimulation effects). Because of some variability of results with different batches of FCS, each compound was tested in a solution of a base concentration of FCS and was compared with minoxidil in a solution of the same base concentration of FCS and with a solution having the same base concentration of FCS alone (no additive), using the same FCS batch in order to provide standardised comparisons for that compound. […]

[2] = test system: K+-stimulated isolated rat aorta; assay: K+-stimulated isolated rat aorta test; conditions: relaxation of contraction triggered by 25 mM KCl in rat aorta rings; asterisk (*) = low activity, only approximate value
Protocol: K^+-stimulated Isolated Rat Aorta Test
Male rats weighing about 300 g are killed painlessly by a blow to the neck and quickly exsanguinated. The thoracic cavity is opened and the aorta is carefully resectioned. It is placed in a Petri dish filled with Krebs solution, and surrounding connective and fatty tissue is removed. Two rings are prepared. The rings are each suspended in an organ bath, They are attached at the bottom to a hook and at the top to an electrical force transducer which is able to measure precisely contractions of 0-10 grams in strength. The measured contractions are amplified by means of a bridge amplifier and recorded with a thermal plotter.
The organ baths are filled with Krebs solution at 37° C. through which an O2/CO2 mixture is bubbled thoroughly and which has the following composition (mmol/1): NaCl 118.4; KCl 4.7; CaCl2 2.5; KH2PO4 1.2; MgSO4 1.2; NaHCO3 25; glucose 11.
The rings are stretched with a basic tone of about 0.5 g, After an equilibration time of about 30 minutes, the rings are caused to undergo contraction by depolarization (addition of 25 mM KCl to the organ bath). The contractions of the rings of aorta, triggered by the depolarization, quickly reach a plateau, As soon as this plateau is reached (“100% value”), the test substance is added to the organ bath, initially at low concentrations, for example 10^−8M, and then in increasing doses at regular intervals, until the contractions reduce or the final concentration of 10^−4M is reached. Each test substance is tested 2-4 times in this way.
For purposes of evaluation, the height of the contractions registered on the plotter paper is measured for each experiment after the action of each test concentration added. The IC50 value can be calculated in this way in relation to the original height of contractions before the addition of substance (100%).

Molecule: 5,5-Dimethyl-7-(2-oxo-1-pyrrolidinyl)-2-(thiazolin-2-yl)-5-thieno[3,2-b]pyran [Compound 50133]
Cell growth potentiation relative to minoxidil at 100 μM (%) ([1]; Compound at 10 μM): 54%
Cell growth relative to FCS alone (%) ([1]; Compound at 100 μM): 60%

Molecule: 6′,7′-Dihydro-5′,5′-dimethylspiro[1,3-dithialane-2,7′-5H-thieno[3,2-b]pyran]-2′-carbonitrile [Compound 50066]
IC50 [2]: ~10 µM
Cell growth potentiation relative to minoxidil at 100 μM (%) ([1]; Compound at 10 μM): 355%
Cell growth potentiation relative to minoxidil at 100 μM (%) ([1]; Compound at 100 μM): 144%

Molecule: 6′,7′-Dihyrdro-5′,5′-dimethylspiro[1,3-dithiolane-2,7′-5H-thieno[3,2-b]pyran] [Compound 50063]
IC50 [2]: ~10 µM
Cell growth relative to FCS alone (%) ([1]; Compound at 10 μM): 55%
Cell growth relative to FCS alone (%) ([1]; Compound at 100 μM): 93%

Molecule: CC1=C(C)C[C@]2(CC(C)(C)Oc3ccsc32)[S@+]([O-])C1 (relative stereo) [Compound 50054, rel-(1′R, 2′R)-3′,6,6′,7-Tetrahydro-4′,5,5′,5-tetramethylspiro[5H-thieno[3,2-b]pyran-7,2′-2H-thiopyran]-1′-oxide]
IC50 [2]: ~3 µM

Molecule: CC1(C)C[C@]2(SCCC[S@+]2[O-])c2sccc2O1 (relative stereo) [Compound 50070, rel-(1S, 2R)-6′,7′-Dihydro-5′,5′-dimethylspiro[1,3-dithiane-2,7′-5H-thieno[3,2-b]pyran]-1-oxide]
Cell growth relative to FCS alone (%) ([1]; Compound at 10 μM): 81%
Cell growth relative to FCS alone (%) ([1]; Compound at 100 μM): 78%

Molecule: CC1(C)Oc2cc(C(F)(F)C(F)(F)F)sc2[C@@H](N2CCCCC2=O)[C@@H]1O (relative stereo) [Compound 50174, rel-(6S, 78S)-2-(Pentafluoroethyl)-6,7-dihydro-6-hydroxy-5,5-dimethyl-7-(2-oxo-1-piperidinyl)-5H-thieno[3,2-b]pyran]
Cell growth potentiation relative to minoxidil at 100 μM (%) ([1]; Compound at 10 μM): 244%
Cell growth potentiation relative to minoxidil at 100 μM (%) ([1]; Compound at 100 μM): 133%

Molecule: CC1(C)C=C(N2CCCC2=O)c2sc(C#N)cc2O1 [Compound 50040, 5,5-Dimethyl-7-(2-oxo-1-pyrrolidinyl)-5H-thieno[3,2-b]pyran-2-carbonitrile]
Cell growth potentiation relative to minoxidil at 100 μM (%) ([1]; Compound at 10 μM): 24%
Cell growth potentiation relative to minoxidil at 100 μM (%) ([1]; Compound at 100 μM): 48%

Molecule: CC1=C(C)C(C2=CC(C)(C)Oc3cc(C#N)sc32)[S+]([O-])C1 (stereo not shown) [Compound 50106, 5,5-Dimethyl-(2,5-dihydro-3,4-dimethyl-1-oxy-thien-2-yl)-5H-thieno[3,2-b]pyran-2-carbonitrile]
Cell growth relative to FCS alone (%) ([1]; Compound at 10 μM): 80%
Cell growth potentiation relative to minoxidil at 100 μM (%) ([1]; Compound at 100 μM): 60%

Molecule: Nc1cc(N2CCCCC2)nc(N)[n+]1[O-] [minoxidil, reference compound]
concentration of greatest potentiation of mitogenic activity of FCS ([1]; 5% FCS, FIG. 2, 100% growth = value for 10% FCS): 100 µM

Second part, led by results:

IC50 [2]: ~10 µM
Molecule: CC1=C(C)C[C@@]2(CC(C)(C)Oc3ccsc32)[S@+]([O-])C1 (relative stereo) [Compound 50055, rel-(1′R, 2′S)-3′,6,6′,7-Tetrahydro-4′,5,5′,5-tetramethylspiro[5N-thieno[3,2-b]pyran-7,2′-2H-thiopyran]-1′-oxide]

IC50 [2]: ~10 µM
Molecule: CC1(C)C[C@@]2(SCC[S@+]2[O-])c2sccc2O1 (relative stereo) [Compound 50064, rel-(1S, 2S)-6′,7′-Dihydro-5′,5′-dimethylspiro[1,3-dithiolane-2,7′-5H-thieno[3,2-b]pyran]-1-oxide]

IC50 [2]: ~30 µM
Molecule: CC1(C)C[C@]2(SCC[S@+]2[O-])c2sccc2O1 (relative stereo) [Compound 50065, rel-(1S, 2R)-6′,7′-Dihydro-5′,5′-dimethylspiro[1,3-dithiolane-2,7′-5H-thieno[3,2-b]pyran]-1-oxide]

IC50 [2]: ~100 µM
Molecule: CC1(C)C[C@@]2(SCC[S@+]2[O-])c2sc(C#N)cc2O1 (relative stereo) [Compound 50067, rel-(1S, 2S)-6′,7′-Dihydro-5′,5′-dimethylspiro[1,3-dithiolane-2,7′-5H-thieno[3,2-b]pyran]-2′-carbonitrile-1-oxide]
Cell growth relative to FCS alone (%) ([1]; Compound at 10 μM): 96%
Cell growth relative to FCS alone (%) ([1]; Compound at 100 μM): 69%

IC50 [2]: ~30 µM
Molecule: CC1(C)C[C@]2(SCC[S@+]2[O-])c2sc(C#N)cc2O1 (relative stereo) [Compound 50068, rel-(1S, 2R)-6′,7′-Dihydro-5′,5′-dimethylspiro[1,3-dithiolane-2,7′-5H-thieno[3,2-b]pyran]-2′-carbonitrile-1-oxide]

IC50 [2]: 2.3 µM
Molecule: CC1=C(C)C[C@]2(CC(C)(C)Oc3cc(C#N)sc32)[S@+]([O-])C1 (relative stereo) [Compound 50096, rel-(1′R, 2′R)-3′,6,6′,7-Tetrahydro-4′,5,5′,5-tetramethyl-1′-oxospiro[5H-thieno[3,2-b]pyran-7,2′-2H-thiopyran-2-carbonitrile]

IC50 [2]: 6.3 µM
Molecule: CC1=C(C)C[C@]2(CC(C)(C)Oc3cc(S(=O)(=O)c4ccccc4)sc32)[S@+]([O-])C1 (relative stereo) [Compound 50126, rel-(1′R,2′R)-3′,6,6′,7-Tetrahydro-4′,5,5′,5-tetramethyl-2-(phenylsulphonyl)spiro[5H-thieno[3,2-b]pyran-7,2′-2H-thiopyran]1′-oxide]

IC50 [2]: 7.4 µM
Molecule: CC1=C(C)C[C@@]2(CC(C)(C)Oc3cc(S(=O)(=O)c4ccccc4)sc32)[S@+]([O-])C1 (relative stereo) [Compound 50127, rel-(1′R,2′S)-3′,6,6′,7-Tetrahydro-4′,5,5′,5-tetramethyl-2-(phenylsulphonyl)spiro[5H-thieno[3,2-b]pyran-7,2′-2H-thiopyran]1′-oxide]

IC50 [2]: 0.018 µM
Molecule: CC1(C)Oc2cc(S(=O)(=O)c3ccccc3)sc2[C@@H](N2CCCC2=O)[C@@H]1O [Compound 50108, (?)-(6S, 7S)-6,7-Dihydro-6-hydroxy-5,5-dimethyl-7-(2-oxo-1-pyrrolidinyl)-2-(phenylsulphonyl)-5H-thieno[3,2-b]pyran]

IC50 [2]: 10 µM
Molecule: CC1=C(C)CS(=O)(=O)C2(C1)CC(C)(C)Oc1ccsc12 (stereo not shown) [Compound 50110, 3′,6,6′,7-Tetrahydro-4′,5,5,5′-tetramethyl-spiro[5H-thieno[3,2-b]pyran-7,2′-2H-thiopyran]-1′,1′-dioxide]

IC50 [2]: 3 µM
Molecule: CC1(C)CC2(CC3(C)OC3(C)CS2(=O)=O)c2sccc2O1 (stereo not shown) [Compound 50111, 4′,5′-Epoxy-3′,6,6′,7-tetrahydro-4′,5,5,5′-tetramethyl-spiro[5H-thieno[3,2-b]pyran-7,2′-2H-thiopyran]-1′,1′-dioxide]
